Data: the supplement of paper PMC10307832

Assays:
Test in all cases: relative viability (nuclei count vs DMSO), 5 days (fraction); higher = more cells survive
[1] = compound: O=C(NC1CCNCC1)c1n[nH]cc1NC(=O)c1c(Cl)cccc1Cl [AT-7519] + COc1cccc2cc(-c3nc([C@H]4CC[C@H](C(=O)O)CC4)n4ncnc(N)c34)[nH]c12 [OSI-027] (partner 0.5 µM)
In short: (§1)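 Cells from lung cancer lines were seeded into 1536-well plates and, one day later, dosed by pin tool. Treatments were either a single drug or a fixed dose of an anchor drug with five library-drug doses (not always all listed) in √10 steps. After 5 days, nuclei were stained in a one-step fixation (final 0.05% Triton X-100, 1% formaldehyde, 1 ug/ml Hoechst) and counted on 4× images, and relative viability is the treated-to-vehicle nuclei ratio, as the median of duplicate plates.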

[2] = compound: C1=CC2=C(C=C(C(=C2N=C1)O)N=NC3=CC4=C(C=C3)C=C(C=C4)S(=O)(=O)O)S(=O)(=O)O + Nc1nc2[nH]cc(CCc3ccc(C(=O)N[C@@H](CCC(=O)O)C(=O)O)cc3)c2c(=O)[nH]1 [Pemetrexed] (partner 0.2 µM)
In short: as §1

[3] = compound: O=C(NC1CCNCC1)c1n[nH]cc1NC(=O)c1c(Cl)cccc1Cl [AT-7519] + Nc1ncn([C@H]2C[C@H](O)[C@@H](CO)O2)c(=O)n1 [Decitabine] (partner 2 µM)
In short: as §1

[4] = compound: O=C(NC1CCNCC1)c1n[nH]cc1NC(=O)c1c(Cl)cccc1Cl [AT-7519] + O=C(c1cc(Cc2n[nH]c(=O)c3ccccc23)ccc1F)N1CCN(C(=O)C2CC2)CC1 [Olaparib] (partner 8 µM)
In short: as §1

Cell Line | relative viability ([1]; first compound 0.01 µM) | relative viability ([1]; first compound 0.03162 µM) | relative viability ([1]; first compound 0.3162 µM) | relative viability ([1]; first compound 1 µM) | relative viability ([2]; first compound 0.08 µM) | relative viability ([2]; first compound 0.253 µM) | relative viability ([2]; first compound 0.8 µM) | relative viability ([2]; first compound 2.53 µM) | relative viability ([2]; first compound 8 µM) | relative viability ([3]; first compound 0.01 µM) | relative viability ([3]; first compound 0.03162 µM) | relative viability ([3]; first compound 0.3162 µM) | relative viability ([3]; first compound 1 µM) | relative viability ([4]; first compound 0.01 µM) | relative viability ([4]; first compound 0.03162 µM) | relative viability ([4]; first compound 0.3162 µM) | relative viability ([4]; first compound 1 µM)
NCI-H1437 | 0.755 | 0.938 | 0.824 | 0.645 | 0.299 | 0.326 | 0.334 | 0.265 | 0.308 | 0.527 | 0.59 | 0.548 | 0.347 | 0.644 | 0.643 | 0.574 | 0.279
COR-L23 | 0.672 | 0.778 | 0.459 | 0.294 | 0.206 | 0.202 | 0.2 | 0.199 | 0.192 | 0.455 | 0.465 | 0.388 | 0.197 | 0.362 | 0.361 | 0.264 | 0.102
ABC-1 | 0.523 | 0.455 | 0.326 | 0.151 |  |  |  |  |  | 1.22 | 1.08 | 0.859 | 0.926 | 1.02 | 0.646 | 0.608 | 0.454
NCI-H522 |  | 0.77 | 0.609 | 0.792 | 0.949 | 1.03 | 1.04 | 0.971 | 1.09 | 0.648 | 0.588 | 0.662 | 0.644 | 0.75 | 0.595 | 0.664 | 0.498
NCI-H838 | 0.345 | 0.39 | 0.276 | 0.127 | 0.264 | 0.251 | 0.235 | 0.234 | 0.246 | 0.479 | 0.45 | 0.383 | 0.152 | 0.812 | 0.766 | 0.576 | 0.0987
SW 900 | 0.489 | 0.581 | 0.624 | 0.424 | 0.479 | 0.49 | 0.468 | 0.531 | 0.481 | 0.437 | 0.435 | 0.422 | 0.32 | 1.06 | 0.8 | 0.622 | 0.371
A549 |  |  |  |  |  |  |  |  |  | 0.233 | 0.22 | 0.28 | 0.251 | 0.312 | 0.309 | 0.315 | 0.368
A-427 | 0.419 | 0.389 | 0.477 | 0.187 | 0.996 | 1.02 | 0.929 | 1.07 | 0.996 | 0.539 | 0.508 | 0.604 | 0.53 | 0.806 | 0.745 | 0.713 | 0.382
NCI-H1792 |  |  | 0.869 | 0.791 | 1.02 | 0.764 | 0.821 | 0.821 | 0.897 | 0.405 | 0.488 | 0.495 | 0.54 | 0.282 | 0.313 | 0.522 | 0.311
LCLC-97TM1 | 0.566 | 0.616 | 0.422 | 0.21 | 0.173 | 0.18 | 0.157 | 0.156 | 0.161 | 0.281 | 0.207 | 0.196 | 0.169 | 0.284 | 0.264 | 0.355 | 0.294
NCI-H1703 |  |  |  |  |  |  |  |  |  |  |  |  |  | 0.454 | 0.435 | 0.388 | 0.175
LCLC-103H | 0.455 | 0.479 | 0.46 | 0.456 | 0.505 | 0.459 | 0.493 | 0.439 | 0.453 | 0.785 | 0.669 | 0.707 | 0.653 | 0.763 | 0.805 | 0.834 | 0.833
PC-3 [JPC-3] | 0.706 | 0.904 | 0.697 | 0.696 | 1.07 | 1.03 | 1.04 | 1.16 | 0.999 | 0.802 | 0.815 | 0.726 | 0.756 | 1.19 | 1.1 | 1.09 | 0.981
BEN | 0.541 | 0.278 | 0.55 | 0.412 | 0.745 | 0.736 | 0.76 | 0.867 | 0.61 | 0.754 | 0.663 | 0.771 | 0.744 | 1.03 | 1.1 | 1.03 | 0.809
Calu-6 |  |  |  |  |  |  |  |  |  |  |  |  |  | 0.622 | 0.641 | 0.688 | 0.262
EBC-1 |  |  |  |  |  |  |  |  |  |  |  |  |  | 0.88 | 0.773 | 0.664 | 0.546
NCI-H1299 |  |  |  |  |  |  |  |  |  |  |  |  |  | 0.97 | 1 | 0.935 | 1.09
NCI-H2228 | 0.517 | 0.586 | 0.469 | 0.446 | 0.305 | 0.312 | 0.328 | 0.334 | 0.324 |  |  |  |  | 0.54 | 0.602 | 0.569 | 0.208
IA-LM |  |  |  |  |  |  |  |  |  |  |  |  |  | 0.866 | 0.892 | 0.834 | 0.631
NCI-H727 | 0.68 | 0.632 | 0.517 | 0.408 |  |  |  |  |  | 0.927 | 0.746 | 0.874 | 0.509 | 0.711 | 0.772 | 0.7 | 0.365
CAL-12T | 0.673 | 0.649 | 0.296 | 0.135 | 1.25 | 1.18 | 1.14 | 1.18 | 1.13 |  |  |  |  | 0.736 | 0.736 | 0.539 | 0.163
